Patent US4034082A, “Method to prevent reproduction in warm-blooded female animals with nonapeptides” (Abbott Laboratories, priority 1976, dated 1977)

Columns and labels:
[1] = tested on: Adult, female rats, mated; assay: Prevention of implantation/pregnancy in mated rats (Example 2); format: in vivo, rat; conditions: 10 μg s.c. b.i.d., day 3 to day 6 of gestation; for fate of the implantation sites: sacrificed day 13; for animals having implantation sites: sacrificed day 13, group of 9 (control: 8 of 9 pregnant); for total implantation sites found in the uteri of the group: sacrificed day 13, groups of 8 or 9 (control: 87 implantation and 3 resorbed sites)
Experimental: Adult, female rats weighing an average of 200 g. were mated and then randomly divided into groups of 8 and 9 rats. In all animals, mating was determined by the presence of sperms in the vaginal opening. In all animals, subcutaneous treatment was started on day 3 of gestation and continued until day 6 with 10 μg of the above compound, b.i.d. in an aqueous vehicle containing 0.1% bovine serum albumin and 0.9% sodium chloride at a concentration of 0.02% (wt./vol.). All animals were sacrificed on day 13 and checked for toxic manifestations, fetuses or viable implants.
In the first of four groups (control), the animals received the above vehicle only. […] Upon sacrifice, a total of 87 implantation and 3 resorbed sites was found in the uteri.

[2] = tested on: Pregnant rabbits; assay: Fetal viability in pregnant rabbits after a single injection (Example 4); format: in vivo, rabbit; conditions: single s.c. injection of 12.5 μg/kg on day 14 of gestation, sacrificed day 28 (control: 7 of 8 implants viable)
Experimental: Pregnant rabbits were given single subcutaneous injections of 12.5 μg/kg of the compounds used in Example 2 by the route and vehicle shown there on day 14 of gestation. […] In all instances, the animals were sacrificed on day 28 of gestation.

[3] = tested on: rats; assay: Reversal of the anti-implantation effect by exogenous estradiol in treated rats; format: in vivo, rat; conditions: rats treated days 2-6 of gestation, estradiol 0.1 μg s.c. in sesame oil on days 4 and 5; for animals in which implantation takes place when estradiol is co-administered: of 8 animals

Row | Compound | fate of the implantation sites [1] | animals showing no signs of implantation ([1]; sacrificed day 13, group of 9) | animals having implantation sites [1] | total implantation sites found in the uteri of the group [1] | viable fetuses per implants (average) [2] | viability of embryos when estradiol is co-administered [3] | animals in which implantation takes place when estradiol is co-administered [3]
1 | CCNC(=O)[C@@H]1CCCN1C(=O)[C@H](CCCNC(=N)N)NC(=O)[C@H](CC(C)C)NC(=O)[C@@H](Cc1c[nH]c2ccccc12)NC(=O)[C@H](Cc1ccc(O)cc1)NC(=O)[C@H](CO)NC(=O)[C@H](Cc1c[nH]c2ccccc12)NC(=O)[C@H](Cc1c[nH]cn1)NC(=O)[C@@H]1CCC(=O)N1 [Compound A] | all resorbed | Seven | two | 25 | one viable fetus per 7 implants | substantially only viable embryos | 3
2 | CCNC(=O)[C@@H]1CCCN1C(=O)[C@H](CCCNC(=N)N)NC(=O)[C@H](CC(C)C)NC(=O)[C@@H](Cc1ccc(O)cc1)NC(=O)[C@H](Cc1ccc(O)cc1)NC(=O)[C@H](CO)NC(=O)[C@H](Cc1c[nH]c2ccccc12)NC(=O)[C@H](Cc1c[nH]cn1)NC(=O)[C@@H]1CCC(=O)N1 [Compound B] | all 22 counted sites had been resorbed |  | 2 | 22 | one viable fetus per 7 implants | substantially only viable embryos | 3
3 | CCNC(=O)[C@@H]1CCCN1C(=O)[C@H](CCCNC(=N)N)NC(=O)[C@H](CC(C)C)NC(=O)[C@@H](Cc1ccccc1)NC(=O)[C@H](Cc1ccc(O)cc1)NC(=O)[C@H](CO)NC(=O)[C@H](Cc1c[nH]c2ccccc12)NC(=O)[C@H](Cc1c[nH]cn1)NC(=O)[C@@H]1CCC(=O)N1 [Compound C] | resorbed |  |  | single | one viable fetus per 7 implants | substantially only viable embryos | 3
